From publication PMC3366986, “On the Mechanism of Action of SJ-172550 in Inhibiting the Interaction of MDM4 and p53” (PLoS ONE, 2012)
Converted amounts (≈) assume the structure as drawn.

Columns and labels:
MDMX (23–111) = target: T1, MDMX (23–111) (Homo sapiens, UniProt O15151); test: thermal stability of MDMX by hydrophobic dye binding (thermal shift); conditions: for effect of reducing agent used alone on thermal stability of MDMX: without compound 1
T1 construct: Thermal shift data for MDMX (23–111) showing a 7 degree stabilization; made in house; host or cells: E. coli BL21(DE3)
T1 sequence (O15151 23-111): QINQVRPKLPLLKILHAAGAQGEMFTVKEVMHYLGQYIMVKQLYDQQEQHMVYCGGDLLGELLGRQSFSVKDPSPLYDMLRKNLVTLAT
Procedure: The ITD measurements were performed with a RT-PCR instrument (Applied Biosystems 7900HT) equipped with a 384-well probe using SYBR detection (excitation 495/emission 537). The program used started at 45°C and the temperature increased at a rate of 1 degree per minute. […] The final volume was 20 µl for each well using 384 ABI PRISM™ plates (Applied Biosystems). The data was exported and evaluated using a custom data processing algorithm coded in Pipeline Pilot (Scitegic). Apparent melting temperatures were calculated by measuring the temperature at which the observed fluorescence signal was halfway between the baseline and the maximum. Binding curves were determined by graphing observed apparent melting temperature as a function of test compound concentrations. These curves were then fit to a four parameter sigmoidal dose response model using PRISM 5.0 (GraphPad Software, Inc.).

[1] = target: T2, hMDMX (GST-tagged, a.a. 1–185) (Homo sapiens, UniProt O15151); test: fluorescence polarization competition assay, MDMX-p53 peptide binding; conditions: for IC50: Figure 3, read-out: IC50, inhibition of MDMX-p53 peptide binding
T2 construct: hMDMX (GST-tagged, a.a. 1–185); made in house; host or cells: E. coli BL21(DE3)
T2 sequence (O15151 1-185): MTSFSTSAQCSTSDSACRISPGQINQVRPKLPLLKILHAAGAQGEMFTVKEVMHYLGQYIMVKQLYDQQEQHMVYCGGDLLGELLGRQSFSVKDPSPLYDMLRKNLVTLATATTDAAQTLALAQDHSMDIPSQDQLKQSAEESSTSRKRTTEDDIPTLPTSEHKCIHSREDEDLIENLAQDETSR
Procedure: All fluorescence polarization assays were performed in binding buffer (10 mM Tris, pH 8.0, 170 mM NaCl, 0.05% Tween-20) unless otherwise noted. For competition assays a master mix of 15 nM Texas red-labeled (N-terminal label) P53 Peptide (sequence: […]) with 1 µM hMDMX (GST-tagged, a.a. 1–185) was prepared and 20 µl was added to black polystyrene 384 well plates (Corning #3573). DMSO stock solutions of test compounds were then added by pin transfer (V&P scientific) in nano-liter volumes (maximum final DMSO percentage = 1%). The assay mixture was incubated at room temperature for one hour and read on an EnVision multi-label plate reader using a 555 nm excitation filter, a 632 nm emission filter, and a Texas Red FP dichroic mirror. Binding inhibition curves and IC50 values were determined by fitting observed mP values to a 4-parameter sigmoidal binding curve using PRISM 5.0 (GraphPad Software, Inc.).

[2] = solubility assay (µSOL Evolution, pION); assay type: physicochemical; conditions: system solution buffer (SSB, pION), pH 7.4, aqueous buffer, kinetic from dmso stock
Procedure: Solubility assay was carried out on Biomek FX lab automation workstation (Beckman Coulter, Inc., Fullerton, CA) using µSOL Evolution software (pION Inc., Woburn, MA). The detailed method is described as following. 10 µL of 10 mM compound stock (in DMSO) was added to 190 µL 1-propanol to make a reference stock plate. 5 µL from this reference stock plate was mixed with 70 µL 1-propanol and 75 µL SSB (system solution buffer, pH adjusted to 7.4, pION Inc., Woburn, MA) to make the reference plate, and the UV spectrum (250 nm –500 nm) of the reference plate was read. 6 µL of 10 mM test compound stock was added to 594 µL SSB in a 96-well storage plate and mixed. The storage plate was sealed and incubated at room temperature for 18 hours. The suspension was then filtered through a 96-well filter plate (pION Inc., Woburn, MA). 75 µL filtrate was mixed with 75 µL 1-propanol to make the sample plate, and the UV spectrum of the sample plate was read. Calculation was carried out by µSOL Evolution software based on the AUC (area under curve) of UV spectrum of the sample plate and the reference plate. All compounds were tested in triplicates.

hMDM2(18–125)C77V = target: T3, hMDM2(18–125)C77V (Homo sapiens, UniProt Q00987, C77V); test: inhibition of p53 peptide binding to MDM2 cysteine mutant; conditions: hMDM2(18–125)C77V relative to MDM2; Figure S6
T3 construct: a mutant of MDM2 protein (hMDM2(18–125)C77V) lacking the cysteine

hMDMX (aa 23–111) = target: T4, hMDMX (aa 23–111) (Homo sapiens, UniProt O15151); test: SPR binding of compound 1 to immobilized hMDMX; conditions: 100 µM
T4 construct: hMDMX (23–111) was immobilized to the SPR chips using a biotin tag; made in house
T4 sequence (O15151 23-111): T1 sequence (O15151 23-111)
Procedure: Binding studies were performed at 25°C using a Biacore T100 (GE Healthcare) surface plasmon resonance (SPR) instrument. Either streptavidin or NeutrAvidin (Thermo Scientific) was immobilized on a carboxymethyldextran-coated gold surface (CM5 chip; GE Healthcare) by standard amine coupling methods. The carboxymethyl groups of dextran were activated with N-ethyl-N ´-(3-dimethylaminopropyl) carbodiimide (EDC) and N-hydroxysuccinimide (NHS). For peptide experiments, streptavidin was attached at pH 4.5 in 10 mM sodium acetate to levels of ∼3000 RU per flow cell. For small molecule experiments, NeutrAvidin was attached at pH 5.0 in 10 mM sodium acetate to levels of ∼11000–12000 RU per flow cell. Any remaining reactive sites were blocked by reaction with ethanolamine. Biotin-MDM4 was captured on the chip by injection over the streptavidin or NeutrAvidin surface.
For peptide binding experiments, p53wt peptide was prepared as a 3-fold serial dilution in peptide binding buffer (20 mM Bis-Tris pH 6.5, 200 mM NaCl, 0.1 mg/mL bovine serum albumin, 0.005% Tween20, +/−1 mM TCEP). The peptide was injected in triplicate at each concentration at a flow rate of 75 µL/min. […] Equilibrium dissociation constants (K d) for peptide binding were determined by equilibrium affinity analysis with a 1∶1 binding model using Scrubber2.

GST-hMDMX = target: T5, GST-hMDMX (Homo sapiens, UniProt O15151); test: mass spectrometry of covalent adducts, GST-tagged hMDMX
T5 construct: made in house; host or cells: E. coli BL21(DE3)
T5 sequence (O15151 1-185): T2 sequence (O15151 1-185)
Procedure: (§1) Samples were prepared in binding buffer (10 mM Tris, pH 8.0, 170 mM NaCl) with a 50 µl final volume. Samples were incubated at room temperature for 1.5 hours after which they were stored overnight at 4°C before analysis by mass spectrometry. Samples containing 1 µM hMDMX constructs were concentrated to 20 µM using 3000 MWCO centrifugal protein concentrators (Vivascience, Inc.) immediately prior to analysis. Prior to injection all samples were desalted using a reverse phase C8 Zip Tip (Millipore) and eluted in 50% acetonitrile, 2% formic acid. The samples were ionized by static nanospray using EconoTips (New Objective) on a Waters LCT Premier XE mass spectrometer using positive mode. The resultant charge envelope was deconvoluted using MaxEnt 1 algorithm of MassLynx V 4.0 sp 4 software. A mass error of 1Da for every 10,000 Da is permissible using this mass spectrometer.

[3] = target: T6, hMDMX (untagged aa 23 to 111 construct) (Homo sapiens, UniProt O15151); test: mass spectrometry of covalent adducts, untagged hMDMX
T6 construct: hMDMX (untagged aa 23 to 111 construct); His-tag (cleaved yes); made in house; host or cells: E. coli BL21(DE3)
T6 sequence (O15151 23-111): T1 sequence (O15151 23-111)
Procedure: as §1

Mdm2 = Mdm2 (Homo sapiens, UniProt Q00987); test: fluorescence polarization p53 peptide exclusion assay, Mdm2; assay type: binding; conditions: ND = compound does not noticeably block interaction with p53 peptide
Source text: (§2) the α,β-unsaturated amide towards Mdm2 and Mdmx as determined using fluorescence
(§3) polarization p53 peptide exclusion assay. Compound core according to J. Biol. Chem. 2010;
(§4) 285: 10786 is marked in blue.
(§5) Compound Chemical formula Compound code Mdm2 MdmX […]

MDMX [4] = target: T7, MDMX (Homo sapiens, UniProt O15151); test: fluorescence polarization p53 peptide exclusion assay, Mdmx; assay type: binding; conditions: ND = compound does not noticeably block interaction with p53 peptide
T7 sequence (O15151 1-490): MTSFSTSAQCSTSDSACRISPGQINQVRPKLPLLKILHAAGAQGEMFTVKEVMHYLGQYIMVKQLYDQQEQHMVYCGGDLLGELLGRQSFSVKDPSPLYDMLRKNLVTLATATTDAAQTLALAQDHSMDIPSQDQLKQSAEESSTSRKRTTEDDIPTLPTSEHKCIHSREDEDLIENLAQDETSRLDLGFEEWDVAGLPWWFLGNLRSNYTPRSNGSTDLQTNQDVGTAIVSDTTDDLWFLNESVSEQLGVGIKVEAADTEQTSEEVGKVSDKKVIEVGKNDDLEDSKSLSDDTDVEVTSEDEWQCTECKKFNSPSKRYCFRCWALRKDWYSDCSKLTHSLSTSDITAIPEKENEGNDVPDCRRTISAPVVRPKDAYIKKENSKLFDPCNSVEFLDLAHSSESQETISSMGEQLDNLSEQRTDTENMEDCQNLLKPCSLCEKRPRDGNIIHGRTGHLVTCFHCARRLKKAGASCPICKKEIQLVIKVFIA
Source text: as §2, §3, §4, §5

C77A mutant of MDM2 = C77A mutant of MDM2 (Homo sapiens, UniProt Q00987, C77A); test: covalent labelling of MDM2 C77A mutant; conditions: C77A mutation; Figure S6
MDMX [5] = target: T7, MDMX; set-up: method as in PMID 20080970; conditions: inhibition of the MDMX-p53 interaction; read-out: EC50, competition for wild type p53 peptide binding to MDMX; cited from earlier work
retinoblastoma cells = system: retinoblastoma cells; set-up: method as in PMID 20080970; conditions: cited from earlier work

T3 sequence (Q00987 18-125 C77V): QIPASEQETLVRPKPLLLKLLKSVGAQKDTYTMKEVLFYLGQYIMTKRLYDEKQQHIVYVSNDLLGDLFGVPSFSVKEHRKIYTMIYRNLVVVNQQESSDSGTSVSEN
Mdm2, sequence (Q00987 whole entry): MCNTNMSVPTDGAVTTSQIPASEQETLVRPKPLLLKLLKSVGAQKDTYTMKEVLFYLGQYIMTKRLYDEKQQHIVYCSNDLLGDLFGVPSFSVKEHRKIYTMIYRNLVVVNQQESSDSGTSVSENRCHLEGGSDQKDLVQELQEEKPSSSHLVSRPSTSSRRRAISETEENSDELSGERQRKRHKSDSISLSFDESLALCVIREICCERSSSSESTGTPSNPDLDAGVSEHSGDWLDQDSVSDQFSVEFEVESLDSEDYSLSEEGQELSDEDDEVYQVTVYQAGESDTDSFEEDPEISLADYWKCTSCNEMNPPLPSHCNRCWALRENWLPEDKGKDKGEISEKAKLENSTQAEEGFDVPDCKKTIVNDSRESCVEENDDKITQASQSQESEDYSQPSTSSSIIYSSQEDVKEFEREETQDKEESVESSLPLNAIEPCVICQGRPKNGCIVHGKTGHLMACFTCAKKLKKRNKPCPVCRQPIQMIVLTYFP
C77A mutant of MDM2, sequence (Q00987 whole entry C77A): as the sequence (Q00987 whole entry) above, with C77A counted along it

O[C@@H](CS)[C@@H](O)CS [DTT]
effect of reducing agent used alone on thermal stability of MDMX (MDMX (23–111)): no apparent effect

O=C(O)CCP(CCC(=O)O)CCC(=O)O [TCEP]
effect of reducing agent used alone on thermal stability of MDMX (MDMX (23–111)): destabilized the protein at high concentrations

CCOc1cc(CC2C(=O)N(c3ccccc3)N=C2C)cc(Cl)c1OCC(=O)OC (centres unmarked) [compound 2]
IC50 [1]: > 100 µM
reduction of inhibitory potency by saturation of the ene-amide group ([1]; compound 2 relative to compound 1): roughly 30 fold

CCOc1cc(/C=C2\C(=O)N(c3ccccc3)N=C2C)cc(Cl)c1OCC(=O)OC [compound 1]
solubility at 18 h [2]: 12 µM (≈ 5.15 µg/mL)
IC50 [1]: 3 µM
reduction of potency after reaction with glutathione in situ ([1]; Figure S5, efficacy not completely removed): 10 fold
weaker potency on cysteine-lacking mutant than on MDM2 (hMDM2(18–125)C77V): 10 fold
stabilization of the protein's melting point (MDMX (23–111); addition of compound 1): 7 degree
EC50 (MDMX (23–111); minimal time dependency (5 min vs 1 h), read-out: apparent EC50 of melting point stabilization): ~1 µM
time to return to baseline after the pulse (off rate) (hMDMX (aa 23–111); non-reducing conditions): ~5 min
SPR binding (hMDMX (aa 23–111); reducing conditions (TCEP)): no binding was observed
covalent adduct formation (mass spectrum) (GST-hMDMX; 1 µM GST-hMDMX, 5 µM compound): no alkylation events
covalent adduct formation (mass spectrum) (GST-hMDMX; 20 µM GST-hMDMX, 100 µM compound): multiple alkylation events
covalent adduct formation (mass spectrum) ([3]; 1 µM hMDMX, 5 µM compound): no alkylation
covalent adduct formation (mass spectrum) ([3]; 20 µM hMDMX, 100 µM compound): partial alkylation
Ki (Mdm2): 5.21 µM
Ki (MDMX [4]): 8.07 µM
ability to covalently label MDM2 (C77A mutant of MDM2): abolishes
EC50 (MDMX [5]): ~5 µM
p53 dependent cell death of retinoblastoma cells (retinoblastoma cells): caused p53 dependent cell death of retinoblastoma cells

O=C(O)c1cc(SSc2ccc([N+](=O)[O-])c(C(=O)O)c2)ccc1[N+](=O)[O-] [DTNB, reference compound]
ability of treated MDMX to bind p53 peptide ([1]; MDMX treated with Ellman's reagent, Figure S3): unable to bind p53 peptide
effect on melting point of MDMX (MDMX (23–111); MDMX treated with Ellman's reagent, Figure S4): partially stabilized
